Patent US11160782B2, “Method for producing nobiletin-containing solid dispersion” (KAO CORPORATION, priority 2016, dated 2021)

Key:
[1] = Solubility in water at 25° C. of the poorly water-soluble raw material; conditions: raw material (poorly water-soluble substance) of the composition
[2] = Transferability of nobiletin into blood circulation during oral administration to mice; type: in vivo; conditions: male, C57BL/6J, mouse, 200 mg/kg, plasma
Text: [Evaluation of Transferability of Nobiletin into Blood Circulation During Oral Administration to Mice]
C57BL/6J mice (male, 6 week-old) were purchased from CLEA Japan, Inc. The mice were habituated to the environment for one week or more, and were fed to a test. Each of the test groups consisted of 8 mice, which was believed to be the minimum number required to ensure the statistical significance of the test system.
Mice were bred in the facility for one week under ad libitum feeding of solid food (CE-s), and the test was performed using the mice. The mice were fasted for 16 hours, and blood was initially collected from the orbital sinus of each mouse under isoflurane anesthesia (heparin-treated micro hematocrit blood collection tube, manufactured by VITREX Medical A/S). Each sample solution was then administrated into the stomach of the mice at a dose of 200 mg/kg weight per mouse using a probe. […]
The collected blood samples were centrifuged at 12,000 rpm for 10 minutes, and 30 μL of plasma in each sample was recovered into an Eppendorf tube. […] The nobiletin concentration in the plasma was measured by LC-MS/MS.
30 μL of acetonitrile was added to 30 μL of the recovered plasma, was stirred with a vortex mixer for 5 seconds, and was centrifuged at 12,000 rpm for 15 minutes at room temperature. […] The nobiletin concentration was then measured by LC-MS/MS.

Row | Solubility in water at 25° C. [1] [ppm] | AUC ([2]; read-out: AUC (area under the blood concentration transition curve) (converted)) [ng·h/mL] | Cmax ([2]; read-out: Cmax (maximum blood concentration of nobiletin)) [ng/mL] | SMILES
1 | 4 | – | – | O=c1oc2c(O)c(O)cc3c(=O)oc4c(O)c(O)cc1c4c23 [Ellagic acid, Ellagic acid dihydrate]
2 | 1 | 5380 | 3700 | COc1ccc(-c2cc(=O)c3c(OC)c(OC)c(OC)c(OC)c3o2)cc1OC [Nobiletin, 3′,4′,5,6,7,8-hexamethoxyflavone]

Row | SMILES | Solubility in water at 25° C. [1] [ppm] | AUC ([2]; read-out: AUC (area under the blood concentration transition curve) (converted)) [ng·h/mL] | Cmax ([2]; read-out: Cmax (maximum blood concentration of nobiletin)) [ng/mL]
3 | COc1ccc([C@@H]2CC(=O)c3c(O)cc(O[C@@H]4O[C@H](CO[C@@H]5O[C@@H](C)[C@H](O)[C@@H](O)[C@H]5O)[C@@H](O)[C@H](O)[C@H]4O)cc3O2)cc1O [Hesperidin] | 0.5 | – | –
